Test results published in ChEMBL document CHEMBL1153196, “Development of an in silico model for human skin permeation based on a Franz cell skin permeability assay” (Bioorg Med Chem Lett, 2010).

Assays:
[1] = Lipophilicity, log D of the compound; assay type: physicochemical; details: octanol/water
Zone of skin = test: Permeability in human skin after 48 hrs by Franz cell permeability assay

For `C[C@H](c1ccccc1)N(C)c1cc(C(F)(F)F)c(C#N)cn1`, the logD [1] was 5.59.
`N#Cc1ccc(-c2ccccc2O)cc1C(F)(F)F` showed a logD [1] of 3.63.
Compound `Cc1nn(-c2ccccc2)c(C)c1/C=N/N1CCN(Cc2ccccc2)CC1` has a logD [1] of 3.65.
For `Oc1cccc2ncccc12`, the logD [1] was 1.46.
For `CC(=O)Nc1cnc(-c2ccccc2)o1`, the logD [1] was 1.22.
Compound `Cc1cc(=O)n(-c2ccccc2)n1C` [ANTIPYRINE] has a logD [1] of 0.27.
With `NC(=O)N1c2ccccc2C=Cc2ccccc21` [CARBAMAZEPINE] the “log Pe” value (Zone of skin) was 0.18 and the logD [1] was 2.67.
Work on `NS(=O)(=O)c1cc2c(cc1Cl)N=CNS2(=O)=O` [CHLOROTHIAZIDE] yielded a logD [1] of -0.78.
In the case of `CN(C)CCCN1c2ccccc2Sc2ccc(Cl)cc21` [CHLORPROMAZINE], the logD [1] is reported as 2.15.
With `Cl.Clc1cccc(Cl)c1NC1=NCCN1` [CLONIDINE HYDROCHLORIDE] the “log Pe” value (Zone of skin) was -0.68 and the logD [1] was 0.37.
With `C[C@]12C[C@H](O)[C@H]3[C@@H](CCC4=CC(=O)CC[C@@]43C)[C@@H]1CC[C@@H]2C(=O)CO` [CORTICOSTERONE] the logD [1] was 1.76.
Work on `C[C@@H]1C[C@H]2[C@@H]3CCC4=CC(=O)C=C[C@]4(C)[C@@]3(F)[C@@H](O)C[C@]2(C)[C@H]1C(=O)CO` [DESOXIMETASONE] yielded a logD [1] of 2.
For `C[C@@H]1C[C@H]2[C@@H]3CCC4=CC(=O)C=C[C@]4(C)[C@@]3(F)[C@@H](O)C[C@]2(C)[C@@]1(O)C(=O)CO` [DEXAMETHASONE], the logD [1] was 1.87.
With `CCOC(=O)[C@H](CCc1ccccc1)N[C@@H](C)C(=O)N1CCC[C@H]1C(=O)O.O=C(O)/C=C\C(=O)O` [ENALAPRIL MALEATE] the “log Pe” value (Zone of skin) was -1.72 and the logD [1] was -0.55.
`CCCn1c(=O)[nH]c(=O)c2[nH]cnc21` [ENPROFYLLINE] gave a logD [1] of 0.27.
With `NS(=O)(=O)c1cc2c(cc1Cl)NCNS2(=O)=O` [HYDROCHLOROTHIAZIDE] the “log Pe” value (Zone of skin) was -2.
`C[C@]12CCC(=O)C=C1CC[C@@H]1[C@@H]2[C@@H](O)C[C@@]2(C)[C@H]1CC[C@]2(O)C(=O)CO` [HYDROCORTISONE] showed a logD [1] of 1.43.
`COc1ccc2c(c1)c(CC(=O)O)c(C)n2C(=O)c1ccc(Cl)cc1` [INDOMETHACIN] gave a logD [1] of 0.59.
Work on `CC(C)Cn1c(=O)n(C)c(=O)c2[nH]cnc21` [ISOBUTYLMETHYLXANTHINE] yielded a logD [1] of 2.
Work on `CC(C(=O)O)c1cccc(C(=O)c2ccccc2)c1` (centres undefined) [KETOPROFEN] yielded a logD [1] of 0.56.
`COCCc1ccc(OCC(O)CNC(C)C)cc1` (centres undefined) [METOPROLOL] showed a logD [1] of -0.81.
`Clc1ccc(COC(Cn2ccnc2)c2ccc(Cl)cc2Cl)c(Cl)c1` (centres undefined) [MICONAZOLE] gave a logD [1] of 5.55.
Compound `Nc1cc(N2CCCCC2)nc(N)[n+]1[O-]` [MINOXIDIL] has a logD [1] of -3.99.
`O=C(O)c1cccnc1Nc1cccc(C(F)(F)F)c1` [NIFLUMIC ACID] showed a logD [1] of 2.01.
In the case of `COc1ccc2[nH]c([S+]([O-])Cc3ncc(C)c(OC)c3C)nc2c1` (centres undefined) [OMEPRAZOLE], the logD [1] is reported as 2.16.
With `CN1C(C(=O)Nc2ccccn2)=C(O)c2ccccc2S1(=O)=O` [PIROXICAM] the logD [1] was -0.35.
In the case of `CC(=O)[C@H]1CC[C@H]2[C@@H]3CCC4=CC(=O)CC[C@]4(C)[C@H]3CC[C@]12C` [PROGESTERONE], the “log Pe” value (Zone of skin) is reported as 1.08.
Compound `CC1(C)C(=O)N(c2ccc(C#N)c(C(F)(F)F)c2)C(=O)N1CCCCO` [RU-58841] has a logD [1] of 2.41.
`Nc1ccc(S(=O)(=O)Nc2ccccn2)cc1` [SULFAPYRIDINE] gave a logD [1] of 0.03.
For `O=C(O)c1cc(/N=N/c2ccc(S(=O)(=O)Nc3ccccn3)cc2)ccc1O` [SULFASALAZINE], the “log Pe” value (Zone of skin) was -1.31 and the logD [1] was 0.05.
In the case of `CCN1CCCC1CNC(=O)c1cc(S(N)(=O)=O)ccc1OC` (centres undefined) [SULPIRIDE], the “log Pe” value (Zone of skin) is reported as -1.48.
`CC(C)(C)NCC(O)c1cc(O)cc(O)c1` (centres undefined) [TERBUTALINE] showed a logD [1] of -2.14.
Work on `CC(C)(C)c1ccc(C(O)CCCN2CCC(C(O)(c3ccccc3)c3ccccc3)CC2)cc1` (centres undefined) [TERFENADINE] yielded a logD [1] of 3.72.
With `C[C@]12CC[C@H]3[C@@H](CCC4=CC(=O)CC[C@@]43C)[C@@H]1CC[C@@H]2O` [TESTOSTERONE] the logD [1] was 3.48.
Work on `CC(=O)CC(c1ccccc1)c1c(O)c2ccccc2oc1=O` (centres undefined) [WARFARIN] yielded a logD [1] of 1.43.
